pEC50: −log10 of the molar value.
System: SARS-CoV-2 replicon
Format: cell-based
Settings: read-out: SARS-CoV-2 Replicon (Huh-7cell) EC50

For CC(C)C(=O)O[C@H]1[C@@H](OC(=O)C(C)C)[C@](C#N)(c2ccc3c(N)ncnn23)O[C@@H]1COP(=O)(OCOC(=O)C(C)(C)C)OCOC(=O)C(C)(C)C [Compound 29, (2R,3R,4R,5R)-2-(4-aminopyrrolo[2,1-f][1,2,4]triazin-7-yl)-5-((((bis(((tert-butylcarbonyl)oxy)methoxy))phosphoryl)oxy)methyl)-2-cyanotetrahydrofuran-3,4-diyl bis(2-methylpropionate)], the pEC50 was 7.30 to 8.00.
CCC(CC)COC(=O)[C@H](Cc1ccccc1)N[P@](=O)(OCOC(=O)OC(C)C)OC[C@H]1O[C@@](C#N)(c2ccc3c(N)ncnn23)[C@H](OC(=O)C(C)C)[C@@H]1OC(=O)C(C)C [Compound 31a, (2R,3R,4R,5R)-2-(4-aminopyrrolo[2,1-f][1,2,4]triazin-7-yl)-2-cyano-5-((((R)-(((S)-1-(2-ethylbutoxy)-1-oxo-3-phenylpropan-2-yl)amino)(((isopropoxycarbonyl)oxy)methoxy)phosphoryl)oxy)methyl)tetrahydrofuran-3,4-diyl bis(2-methylpropionate)] was tested, and the pEC50 was 7.30 to 8.00.
CC(C)OC(=O)OCOP(=O)(OCOC(=O)OC(C)C)OC[C@H]1O[C@@](C#N)(c2ccc3c(N)ncnn23)[C@H](OC(=O)C(C)(C)C)[C@@H]1OC(=O)C(C)(C)C [Compound 20, (2R,3R,4R,5R)-2-(4-aminopyrrolo[2,1-f][1,2,4]triazin-7-yl)-5-((((bis(((isopropoxycarbonyl)oxy)methoxy))phosphoryl)oxy)methyl)-2-cyanotetrahydrofuran-3,4-diyl bis(2,2-dimethylpropionate)] showed a pEC50 of 7.30 to 8.00.
CC(C)C(=O)O[C@H]1[C@@H](OC(=O)C(C)C)[C@](C#N)(c2ccc3c(N)ncnn23)O[C@@H]1COP(=O)(OCCSC(=O)C(C)(C)C)OCCSC(=O)C(C)(C)C [Compound 30, (2R,3R,4R,5R)-2-(4-aminopyrrolo[2,1-f][1,2,4]triazin-7-yl)-5-((((bis(2-(pivaloylthio)ethoxy))phosphoryl)oxy)methyl)-2-cyanotetrahydrofuran-3,4-diyl bis(2-methylpropionate)] was tested, and the pEC50 was over 8.30.
Work on CCC(CC)COC(=O)C1(N[P@](=O)(OC[C@H]2O[C@@](C#N)(c3ccc4c(N)ncnn34)[C@H](OC(=O)C(C)C)[C@@H]2OC(=O)C(C)C)Oc2ccccc2)CCC1 [Compound 40b, (2R,3R,4R,5R)-2-(4-aminopyrrolo[2,1-f][1,2,4]triazin-7-yl)-2-cyano-5-((((S)-((1-((2-ethylbutoxy)carbonyl)cyclobutyl)amino)(phenoxy)phosphoryl)oxy)methyl)tetrahydrofura n-3,4-diyl bis(2-methylpropionate)] yielded a pEC50 of 6.30 to 7.30.
CC(=O)O[C@H]1[C@@H](OC(C)=O)[C@](C#N)(c2ccc3c(N)ncnn23)O[C@@H]1CO[P@](=O)(OCOC(=O)OC(C)C)Oc1ccc(C(C)(C)C)cc1 [Compound 22a, (2R,3R,4R,5R)-2-(4-aminopyrrolo[2,1-f][1,2,4]triazin-7-yl)-5-((((S)-(4-tert-butylphenoxy)(((isopropoxycarbonyl)oxy)methoxy)phosphoryl)oxy)methyl)-2-cyanotetrahydrofuran-3,4-diyl diacetate] showed a pEC50 of over 8.30.
CCC(=O)O[C@H]1[C@@H](OC(=O)CC)[C@](C#N)(c2ccc3c(N)ncnn23)O[C@@H]1CO[P@@](=O)(N[C@@H](C)C(=O)OCC(CC)CC)OCOC(=O)C(C)(C)C [Compound 10b, (2R,3R,4R,5R)-2-(4-aminopyrrolo[2,1-f][1,2,4]triazin-7-yl)-2-cyano-5-((((S)-(((S)-1-(2-ethylbutoxy)-1-oxopropan-2-yl)amino)((pivaloyloxy)methoxy)phosphoryl)oxy)methyl)tetrahydrofuran-3,4-diyl dipropionate] showed a pEC50 of at least 8.30.
In the case of CCCCC/C=C\C/C=C\CCCCCCCCOC(=O)[C@H](C)N[P@](=O)(OCOC(=O)OC(C)C)OC[C@H]1O[C@@](C#N)(c2ccc3c(N)ncnn23)[C@H](OC(=O)C(C)C)[C@@H]1OC(=O)C(C)C [Compound 52a, (2R,3R,4R,5R)-2-(4-aminopyrrolo[2,1-f][1,2,4]triazin-7-yl)-2-cyano-5-((((R)-(((isopropoxycarbonyl)oxy)methoxy)(((S)-1-(((9Z,12Z)-octadeca-9,12-dien-1-yl)oxy)-1-oxopropan-2-yl)amino)phosphoryl)oxy)methyl)tetrahydrofuran-3,4-diyl bis(2-methylpropionate)], the pEC50 was 6.30 to 7.30.
Work on CCC(=O)O[C@H]1[C@@H](OC(=O)CC)[C@](C#N)(c2ccc3c(N)ncnn23)O[C@@H]1CO[P@@](=O)(N[C@@H](C)C(=O)OCC(CC)CC)OCOC(=O)OC(C)C [Compound 6b, (2R,3R,4R,5R)-2-(4-aminopyrrolo[2,1-f][1,2,4]triazin-7-yl)-2-cyano-5-((((S)-(((S)-1-(2-ethylbutoxy)-1-oxopropan-2-yl)amino)(((isopropoxycarbonyl)oxy)methoxy)phosphoryl)oxy)methyl)tetrahydrofuran-3,4-diyl dipropionate] yielded a pEC50 of at least 8.30.
Compound CCC(CC)COC(=O)[C@H](C)N[P@](=O)(OCOC(=O)OC(C)C)OC[C@H]1O[C@@](C#N)(c2ccc3c(N)ncnn23)[C@H](OC(=O)C(C)C)[C@@H]1OC(=O)C(C)C [Compound 7a, (2R,3R,4R,5R)-2-(4-aminopyrrolo[2,1-f][1,2,4]triazin-7-yl)-2-cyano-5-((((R)-(((S)-1-(2-ethylbutoxy)-1-oxopropan-2-yl)amino)(((isopropoxycarbonyl)oxy)methoxy)phosphoryl)oxy)methyl)tetrahydrofuran-3,4-diyl bis(2-methylpropionate)] has a pEC50 of 7.30 to 8.00.
CC(C)C(=O)O[C@H]1[C@@H](OC(=O)C(C)C)[C@](C#N)(c2ccc3c(N)ncnn23)O[C@@H]1CO[P@](=O)(N[C@@H](Cc1ccccc1)C(=O)OC1CCC1)Oc1ccccc1 [Compound 63a] gave a pEC50 of 7.30 to 8.00.
With CCC(CC)COC(=O)[C@H](C)N[P@@](=O)(OCc1ccccc1C)OC[C@H]1O[C@@](C#N)(c2ccc3c(N)ncnn23)[C@H](OC(=O)C(C)C)[C@@H]1OC(=O)C(C)C [Compound 16b, (2R,3R,4R,5R)-2-(4-aminopyrrolo[2,1-f][1,2,4]triazin-7-yl)-2-cyano-5-((((R)-(((S)-1-(2-ethylbutoxy)-1-oxopropan-2-yl)amino)((2-methylbenzyl)oxy)phosphoryl)oxy)methyl)tetrahydrofuran-3,4-diyl bis(2-methylpropionate)] the pEC50 was 6.30 to 7.30.
Work on CCC(CC)COC(=O)[C@H](Cc1ccccc1)N[P@@](=O)(OCOC(=O)OC(C)C)OC[C@H]1O[C@@](C#N)(c2ccc3c(N)ncnn23)[C@H](OC(=O)C(C)C)[C@@H]1OC(=O)C(C)C [Compound 31b, (2R,3R,4R,5R)-2-(4-aminopyrrolo[2,1-f][1,2,4]triazin-7-yl)-2-cyano-5-((((S)-(((S)-1-(2-ethylbutoxy)-1-oxo-3-phenylpropan-2-yl)amino)(((isopropoxycarbonyl)oxy)methoxy)phosphoryl)oxy)methyl)tetrahydrofuran-3,4-diyl bis(2-methylpropionate)] yielded a pEC50 of 7.30 to 8.00.
Compound CC(C)OC(=O)OCOP(=O)(OCOC(=O)OC(C)C)OC[C@H]1O[C@@](C#N)(c2c(Br)cc3c(N)ncnn23)[C@H](OC(=O)C(C)C)[C@@H]1OC(=O)C(C)C [Compound 65, (2R,3R,4R,5R)-2-(4-amino-6-bromopyrrolo[2,1-f][1,2,4]triazin-7-yl)-5-(((bis(((isopropoxycarbonyl)oxy)methoxy)phosphoryl)oxy)methyl)-2-cyanotetrahydrofuran-3,4-diyl bis(2-methylpropionate)] has a pEC50 of 6.30 to 7.30.
With CCC(=O)O[C@H]1[C@@H](OC(=O)CC)[C@](C#N)(c2ccc3c(N)ncnn23)O[C@@H]1CO[P@](=O)(N[C@@H](C)C(=O)OCC(CC)CC)OCOC(=O)C(C)(C)C [Compound 10a, (2R,3R,4R,5R)-2-(4-aminopyrrolo[2,1-f][1,2,4]triazin-7-yl)-2-cyano-5-((((R)-(((S)-1-(2-ethylbutoxy)-1-oxopropan-2-yl)amino)((pivaloyloxy)methoxy)phosphoryl)oxy)methyl)tetrahydrofuran-3,4-diyl dipropionate] the pEC50 was 7.30 to 8.00.
CCC(CC)COC(=O)C[C@H](N[P@](=O)(OC[C@H]1O[C@@](C#N)(c2ccc3c(N)ncnn23)[C@H](OC(=O)C(C)C)[C@@H]1OC(=O)C(C)C)Oc1ccccc1)C(=O)OCC(CC)CC [Compound 62b, (2R,3R,4R,5R)-2-(4-aminopyrrolo[2,1-f][1,2,4]triazin-7-yl)-2-cyano-5-((((S)-(((S)-1,4-bis(2-ethylbutoxy)-1,4-dioxobutan-2-yl)amino)(phenoxy)phosphoryl)oxy)methyl)tetrahydrofuran-3,4-diyl bis(2-methylpropionate)] was tested, and the pEC50 was 7.30 to 8.00.
Work on CCCCC/C=C\C/C=C\CCCCCCCCOC(=O)[C@H](C)NP(=O)(OCOC(=O)C(C)(C)C)OC[C@H]1O[C@@](C#N)(c2ccc3c(N)ncnn23)[C@H](OC(=O)C(C)C)[C@@H]1OC(=O)C(C)C (stereo partly drawn) [Compound 51, (2R,3R,4R,5R)-2-(4-aminopyrrolo[2,1-f][1,2,4]triazin-7-yl)-2-cyano-5-((((((S)-1-(((9Z,12Z)-octadeca-9,12-dien-1-yl)oxy)-1-oxopropan-2-yl)amino)((pivaloyloxy)methoxy)phosphoryl)oxy)methyl)tetrahydrofuran-3,4-diyl bis(2-methylpropionate)] yielded a pEC50 of 6.30 to 7.30.
Work on CCC(CC)COC(=O)[C@H](C)N[P@](=O)(OCOC(=O)C(C)(C)C)OC[C@H]1O[C@@](C#N)(c2ccc3c(N)ncnn23)[C@H](OC(C)=O)[C@@H]1OC(C)=O [Compound 9a, (2R,3R,4R,5R)-2-(4-aminopyrrolo[2,1-f][1,2,4]triazin-7-yl)-2-cyano-5-((((R)-(((S)-1-(2-ethylbutoxy)-1-oxopropan-2-yl)amino)((pivaloyloxy)methoxy)phosphoryl)oxy)methyl)tetrahydrofuran-3,4-diyl diacetate] yielded a pEC50 of 8.00 to 8.30.
For CCC(CC)COC(=O)[C@H](C)N[P@](=O)(OCOC(=O)C(C)(C)C)OC[C@H]1O[C@@](C#N)(c2ccc3c(N)ncnn23)[C@H](OC(=O)C(C)C)[C@@H]1OC(=O)C(C)C [Compound 11a, (2R,3R,4R,5R)-2-(4-aminopyrrolo[2,1-f][1,2,4]triazin-7-yl)-2-cyano-5-((((R)-(((S)-1-(2-ethylbutoxy)-1-oxopropan-2-yl)amino)((pivaloyloxy)methoxy)phosphoryl)oxy)methyl)tetrahydrofuran-3,4-diyl bis(2-methylpropionate)], the pEC50 was 7.30 to 8.00.
